Reference: ChEMBL document CHEMBL3414511, “Synthesis of a novel class of substituted benzothiophene or benzofuran derivatives as BMP-2 up-regulators and evaluation of the BMP-2-up-regulating effects in vitro and the effects on glucocorticoid-induced osteoporosis in rats” (Eur J Med Chem, 2015)
Activity calls are given as the source filed them. The calls are words filed in the database; no cut-off is given here.

Columns and labels:
[1] = test system: Rattus norvegicus; test: Antiosteoporotic activity in glucocorticoid-induced Wistar rat osteoporosis model assessed as trabecula resorption surface at 30 mg/kg/day, po administered six times a week for 3 months by fluorescence assay (reference value: 7.22 +/- 2.04%); assay type: functional
[2] = test system: Rattus norvegicus; test: Toxicity in glucocorticoid-induced Wistar rat osteoporosis model assessed as effect on red blood cell specific volume at 30 mg/kg/day, po administered six times a week for 3 months; assay type: organism-based; set-up: route oral; settings: in vivo
[3] = test system: Rattus norvegicus; test: Toxicity in glucocorticoid-induced Wistar rat osteoporosis model assessed as aspartate transaminase level at 30 mg/kg/day, po administered six times a week for 3 months (reference value: 177.55 +/- 116.98 U/L); assay type: organism-based; set-up: route oral; settings: in vivo
[4] = test system: Rattus norvegicus; test: Toxicity in glucocorticoid-induced Wistar rat osteoporosis model assessed as effect on hemoglobin at 30 mg/kg/day, po administered six times a week for 3 months; assay type: organism-based; set-up: route oral; settings: in vivo
[5] = test system: Rattus norvegicus; test: Toxicity in glucocorticoid-induced Wistar rat osteoporosis model assessed as alanine transaminase level at 30 mg/kg/day, po administered six times a week for 3 months (reference value: 43.73 +/- 36.21 U/L); assay type: organism-based; set-up: route oral; settings: in vivo
[6] = test system: Rattus norvegicus; test: Toxicity in glucocorticoid-induced Wistar rat osteoporosis model assessed as effect on blood urea nitrogen level at 30 mg/kg/day, po administered six times a week for 3 months; assay type: organism-based; set-up: route oral; settings: in vivo
[7] = test system: Rattus norvegicus; test: Toxicity in glucocorticoid-induced Wistar rat osteoporosis model assessed as effect on albumin level at 30 mg/kg/day, po administered six times a week for 3 months; assay type: organism-based; set-up: route oral; settings: in vivo
[8] = test system: Rattus norvegicus; test: Toxicity in glucocorticoid-induced Wistar rat osteoporosis model assessed as effect on red blood cell distribution width at 30 mg/kg/day, po administered six times a week for 3 months; assay type: organism-based; set-up: route oral; settings: in vivo
[9] = test system: Rattus norvegicus; test: Antiosteoporotic activity in glucocorticoid-induced Wistar rat osteoporosis model assessed as trabecular bone volume at 30 mg/kg/day, po administered six times a week for 3 months by fluorescence assay (reference value: 33.09 +/- 5.15%); assay type: functional, Trabecula
[10] = test system: Rattus norvegicus; test: Toxicity in glucocorticoid-induced Wistar rat osteoporosis model assessed as effect on total bilirubin level at 30 mg/kg/day, po administered six times a week for 3 months; assay type: organism-based; set-up: route oral; settings: in vivo
[11] = test system: Rattus norvegicus; test: Toxicity in glucocorticoid-induced Wistar rat osteoporosis model assessed as effect on mean corpuscular hemoglobin concentration at 30 mg/kg/day, po administered six times a week for 3 months; assay type: organism-based; set-up: route oral; settings: in vivo
[12] = test system: Rattus norvegicus; test: Toxicity in glucocorticoid-induced Wistar rat osteoporosis model assessed as effect on total protein level at 30 mg/kg/day, po administered six times a week for 3 months; assay type: organism-based; set-up: route oral; settings: in vivo
[13] = test system: Rattus norvegicus; test: Toxicity in glucocorticoid-induced Wistar rat osteoporosis model assessed as lymph level at 30 mg/kg/day, po administered six times a week for 3 months (reference value: 50.35 +/- 12.96%); assay type: organism-based; set-up: route oral; settings: in vivo
[14] = test system: Rattus norvegicus; test: Toxicity in glucocorticoid-induced Wistar rat osteoporosis model assessed as effect on red blood cells at 30 mg/kg/day, po administered six times a week for 3 months; assay type: organism-based; set-up: route oral; settings: in vivo
[15] = test system: Rattus norvegicus; test: Antiosteoporotic activity in glucocorticoid-induced Wistar rat osteoporosis model assessed as mineral apposition rate at 30 mg/kg/day, po administered six times a week for 3 months by fluorescence assay (reference value: 1.06 +/- 0.27 micrometer/day); assay type: functional
[16] = test system: Rattus norvegicus; test: Toxicity in glucocorticoid-induced Wistar rat osteoporosis model assessed as effect on creatinine level at 30 mg/kg/day, po administered six times a week for 3 months; assay type: organism-based; set-up: route oral; settings: in vivo
[17] = Acute toxicity in po dosed Kunming mouse administered for 3 days measured during compound dosing and following 14 days; assay type: organism-based; settings: in vivo
[18] = test system: Rattus norvegicus; test: Toxicity in glucocorticoid-induced Wistar rat osteoporosis model assessed as effect on glucose level at 30 mg/kg/day, po administered six times a week for 3 months; assay type: organism-based; set-up: route oral; settings: in vivo
[19] = test system: Mus musculus; test: Acute toxicity in Kunming mouse assessed as shiny fur at 700 mg/kg, po administered for 3 days measured during compound dosing and following 14 days; assay type: organism-based; set-up: dose 700 mg/kg, route oral; settings: in vivo, 336 h
[20] = test system: Rattus norvegicus; test: Toxicity in glucocorticoid-induced Wistar rat osteoporosis model assessed as triglycerides level at 30 mg/kg/day, po administered six times a week for 3 months (reference value: 1.13 +/- 0.69 mmol/L); assay type: organism-based; set-up: route oral; settings: in vivo
[21] = Upregulation of BMP-2 expression in mouse MC3T3-E1 cells at 4 uM after 24 hrs by luciferase reporter gene assay relative to control; assay type: functional, cell-based
[22] = test system: Rattus norvegicus; test: Toxicity in glucocorticoid-induced Wistar rat osteoporosis model assessed as effect on mean corpuscular volume at 30 mg/kg/day, po administered six times a week for 3 months; assay type: organism-based; set-up: route oral; settings: in vivo
[23] = test system: Rattus norvegicus; test: Antiosteoporotic activity in glucocorticoid-induced Wistar rat osteoporosis model assessed as trabecula formation surface at 30 mg/kg/day, po administered six times a week for 3 months by fluorescence assay (reference value: 7.82 +/- 2.46%); assay type: functional
[24] = test system: Rattus norvegicus; test: Toxicity in glucocorticoid-induced Wistar rat osteoporosis model assessed as effect on platelets at 30 mg/kg/day, po administered six times a week for 3 months; assay type: organism-based; set-up: route oral; settings: in vivo
[25] = test system: Rattus norvegicus; test: Toxicity in glucocorticoid-induced Wistar rat osteoporosis model assessed as neutrophilic granulocytes level at 30 mg/kg/day, po administered six times a week for 3 months (reference value: 31.95 +/- 8.33%); assay type: organism-based; set-up: route oral; settings: in vivo
[26] = test system: Rattus norvegicus; test: Toxicity in glucocorticoid-induced Wistar rat osteoporosis model assessed as white blood cells at 30 mg/kg/day, po administered six times a week for 3 months (reference value: 6.28 +/- 2.78 x 10^9/L); assay type: organism-based; set-up: route oral; settings: in vivo
[27] = test system: Rattus norvegicus; test: Antiosteoporotic activity in glucocorticoid-induced Wistar rat osteoporosis model assessed as densed trabecula at 30 mg/kg/day, po administered six times a week for 3 months by toluidine blue staining-based light microscopic analysis relative to dexamethasone; assay type: functional, organism-based
[28] = test system: Mus musculus; test: Acute toxicity in Kunming mouse assessed as behavioral changes at 700 mg/kg, po administered for 3 days measured during compound dosing and following 14 days; assay type: organism-based; set-up: dose 700 mg/kg, route oral; settings: in vivo, 336 h
[29] = test system: Rattus norvegicus; test: Antiosteoporotic activity in glucocorticoid-induced Wistar rat osteoporosis model appearance of turbulent and sparse rarefection of trabecula at 30 mg/kg/day, po administered six times a week for 3 months by toluidine blue staining-based light microscopic analysis; assay type: functional, organism-based
[30] = test system: Rattus norvegicus; test: Antiosteoporotic activity in glucocorticoid-induced Wistar rat osteoporosis model assessed as trabecular bone volume at 2.5 mg/kg/day, im administered twice each week for 8 weeks by fluorescence assay (reference value: 33.09 +/- 5.15%); assay type: functional, Trabecula; settings: route intramuscular
[31] = test system: Rattus norvegicus; test: Antiosteoporotic activity in glucocorticoid-induced Wistar rat osteoporosis model assessed as trabecula formation surface at 2.5 mg/kg/day, im administered twice each week for 8 weeks by fluorescence assay (reference value: 7.82 +/- 2.46%); assay type: functional; settings: route intramuscular
[32] = test system: Rattus norvegicus; test: Antiosteoporotic activity in glucocorticoid-induced Wistar rat osteoporosis model assessed as appearance of turbulent and sparse rarefection of trabecula at 2.5 mg/kg/day, im administered twice each week for 8 weeks by toluidine blue staining-based light microscopic analysis; assay type: functional, organism-based
[33] = test system: Rattus norvegicus; test: Toxicity in glucocorticoid-induced Wistar rat osteoporosis model assessed as neutrophilic granulocytes level at 2.5 mg/kg/day, im administered twice each week for 8 weeks (reference value: 31.95 +/- 8.33%); assay type: organism-based; set-up: route intramuscular; settings: in vivo, 1344 h
[34] = test system: Rattus norvegicus; test: Toxicity in glucocorticoid-induced Wistar rat osteoporosis model assessed as aspartate transaminase level at 2.5 mg/kg/day, im administered twice each week for 8 weeks (reference value: 177.55 +/- 116.98 U/L); assay type: organism-based; set-up: route intramuscular; settings: in vivo, 1344 h
[35] = test system: Rattus norvegicus; test: Antiosteoporotic activity in glucocorticoid-induced Wistar rat osteoporosis model assessed as mineral apposition rate at 2.5 mg/kg/day, im administered twice each week for 8 weeks by fluorescence assay (reference value: 1.06 +/- 0.27 micrometer/day); assay type: functional; settings: route intramuscular
[36] = test system: Rattus norvegicus; test: Antiosteoporotic activity in glucocorticoid-induced Wistar rat osteoporosis model assessed as trabecula resorption surface at 2.5 mg/kg/day, im administered twice each week for 8 weeks by fluorescence assay (reference value: 7.22 +/- 2.04%); assay type: functional; settings: route intramuscular
[37] = test system: Rattus norvegicus; test: Toxicity in glucocorticoid-induced Wistar rat osteoporosis model assessed as white blood cells at 2.5 mg/kg/day, im administered twice each week for 8 weeks (reference value: 6.28 +/- 2.78 x 10^9/L); assay type: organism-based; set-up: route intramuscular; settings: in vivo, 1344 h
[38] = test system: Rattus norvegicus; test: Toxicity in glucocorticoid-induced Wistar rat osteoporosis model assessed as alanine transaminase level at 2.5 mg/kg/day, im administered twice each week for 8 weeks (reference value: 43.73 +/- 36.21 U/L); assay type: organism-based; set-up: route intramuscular; settings: in vivo, 1344 h
[39] = test system: Rattus norvegicus; test: Toxicity in glucocorticoid-induced Wistar rat osteoporosis model assessed as lymph level at 2.5 mg/kg/day, im administered twice each week for 8 weeks (reference value: 50.35 +/- 12.96%); assay type: organism-based; set-up: route intramuscular; settings: in vivo, 1344 h
[40] = test system: Rattus norvegicus; test: Toxicity in glucocorticoid-induced Wistar rat osteoporosis model assessed as triglycerides level at 2.5 mg/kg/day, im administered twice each week for 8 weeks (reference value: 1.13 +/- 0.69 mmol/L); assay type: organism-based; set-up: route intramuscular; settings: in vivo, 1344 h

Structure (SMILES)	Activity [1]	Activity [2]	Activity [3]	Activity [4]	Activity [5]	Activity [6]	Activity [7]	Activity [8]	Activity [9]	Activity [10]	Activity [11]	Activity [12]	Activity [13]	Activity [14]	Activity [15]	Activity [16]	Activity [18]	Activity [20]	Activity [21]	Activity [22]	other results
COC(=O)c1ccc2cc(C(C)=O)sc2c1	9.52%	Non-toxic	119.08 U/L	Non-toxic	31.55 U/L	Non-toxic	Non-toxic	Non-toxic	24.72%	Non-toxic	Non-toxic	Non-toxic	34.98%	Non-toxic	0.99 micrometer/day	Non-toxic	Non-toxic	0.52 mmol/L	85.2%	Non-toxic	LD50 at 336 h [17]: > 700 mg/kg; Activity [19]: Non-toxic; Activity [23]: 5.95%; Activity [24]: Non-toxic; Activity [25]: 48.93%; Activity [26]: 4.52 ×10⁹ /L; Activity [27]: Active; Activity [28]: Non-toxic
CC(=O)c1cc2ccc(C(=O)O)cc2s1	10.9%	Non-toxic	123.33 U/L	Non-toxic	31.17 U/L	Non-toxic	Non-toxic	Non-toxic	20.5%	Non-toxic	Non-toxic	Non-toxic	35.72%	Non-toxic	0.97 micrometer/day	Non-toxic	Non-toxic	0.53 mmol/L	102%	Non-toxic	Activity [29]: inactive; Activity [23]: 4.61%; Activity [24]: Non-toxic; Activity [25]: 47.16%; Activity [26]: 3.55 ×10⁹ /L
C[C@@H]1C[C@H]2[C@@H]3CCC4=CC(=O)C=C[C@]4(C)[C@@]3(F)[C@@H](O)C[C@]2(C)[C@@]1(O)C(=O)CO [DEXAMETHASONE]	–	–	–	–	–	–	–	–	–	–	–	–	–	–	–	–	–	–	–	–	Activity [30]: 18.46%; Activity [31]: 4.49%; Activity [32]: inactive; Activity [33]: 53.03%; Activity [34]: 213 U/L; Activity [35]: 0.76 micrometer/day; Activity [36]: 11.8%; Activity [37]: 6.58 ×10⁹ /L; Activity [38]: 63.64 U/L; Activity [39]: 25.77%; Activity [40]: 1.63 mmol/L
